# In patent US9596849B2, “Composition containing sorbitan monocaprylate and alcohol” (Clariant International Ltd., priority 2009, dated 2017):
# Tests used:
# Aspergillus brasiliensis = assay: Minimum inhibitory concentration and synergistic effect (Kull) against Aspergillus brasiliensis; format: cell-based; details: for QA (minimum inhibitory concentration of the pure substance A): pure sorbitan monocaprylate
# Source text: (§1) Calculation of the synergistic effect according to the formula Qa/QA+Qb/QB=SE (synergistic effect, according to F. C. Kull et al., Applied Microbiology 1961, 9, 538), where Qa=minimum inhibitory concentration of the compound A in % in the mixture used, QA=minimum inhibitory concentration of the pure substance A, Qb=minimum inhibitory concentration of the compound B in % in the mixture used, and QB=minimum inhibitory concentration of the pure substance B.
# (§2) Evaluation of the synergistic effect: where an SE>1 is obtained, there is an antagonistic effect; if SE=1, then the compounds are neutral in their behavior toward one another, and if SE<1, there is a synergistic effect.
# (§3) Mixtures of sorbitan monocaprylate and phenoxyethanol or benzyl alcohol, in accordance with Examples 1) and 2), were investigated. The results with respect to synergism are set out in Tables A and B. “MIC blend” here is the minimum inhibitory concentration of the respective blend.
# Staphylococcus aureus = assay: Minimum inhibitory concentration and synergistic effect (Kull) against Staphylococcus aureus; format: cell-based; details: for QA (minimum inhibitory concentration of the pure substance A): pure sorbitan monocaprylate
# Source text: as §1, §2, §3
# [1] = Table A, sorbitan monocaprylate in 50:50 blend with phenoxyethanol
# [2] = Table B, sorbitan monocaprylate in 50:50 blend with benzyl alcohol
substance,measurement,setting,value
sorbitan monocaprylate,QA (minimum inhibitory concentration of the pure substance A),Aspergillus brasiliensis; Table A,0.016%
same,Qa (minimum inhibitory concentration of compound A in the mixture used),Aspergillus brasiliensis; [1],0.004%
same,QA (minimum inhibitory concentration of the pure substance A),Aspergillus brasiliensis; Table B,0.016%
same,Qa (minimum inhibitory concentration of compound A in the mixture used),Aspergillus brasiliensis; [2],0.004%
same,QA (minimum inhibitory concentration of the pure substance A),Staphylococcus aureus; Table A,0.25%
same,Qa (minimum inhibitory concentration of compound A in the mixture used),Staphylococcus aureus; [1],0.0315%
same,QA (minimum inhibitory concentration of the pure substance A),Staphylococcus aureus; Table B,0.25%
same,Qa (minimum inhibitory concentration of compound A in the mixture used),Staphylococcus aureus; [2],0.016%
